From the NIST ThermoML archive (doi:10.1021/je5010214)

Conditions: Liquid, Vibrating tube method

CCCCCCC [heptane]
Conditions	mass density [kg/m3]
323.15 K, 34081 kPa	690.434
323.15 K, 35113 kPa	691.624
323.15 K, 37953 kPa	693.659
323.15 K, 42011 kPa	696.516
323.15 K, 48025 kPa	700.814
323.15 K, 49934 kPa	702.105
323.15 K, 52114 kPa	703.681
323.15 K, 54964 kPa	705.509
323.15 K, 58045 kPa	707.475
323.15 K, 60050 kPa	708.827
323.15 K, 62131 kPa	710.008
323.15 K, 64999 kPa	711.842
323.16 K, 920.7 kPa	659.343
323.16 K, 27958 kPa	685.975
323.16 K, 30055 kPa	687.083
323.16 K, 33067 kPa	689.946
323.16 K, 40047 kPa	695.097
323.16 K, 44937 kPa	698.783
323.16 K, 66131 kPa	712.551
328.15 K, 100.8 kPa	653.868
328.15 K, 289.9 kPa	654.182
328.15 K, 897.5 kPa	654.815
328.15 K, 994.1 kPa	655.012
328.15 K, 1988.8 kPa	656.162
328.15 K, 2996.7 kPa	657.408
328.15 K, 5013.4 kPa	659.794
328.15 K, 6974.9 kPa	662.023
328.15 K, 9017 kPa	664.204
328.15 K, 10040 kPa	665.257
328.15 K, 24924 kPa	679.489
328.15 K, 27979 kPa	682.036
328.15 K, 29958 kPa	683.395
328.15 K, 32060 kPa	685.102
328.15 K, 33066 kPa	685.969
328.15 K, 33107 kPa	685.992
328.15 K, 34013 kPa	687.01
328.15 K, 35030 kPa	687.796
328.15 K, 38010 kPa	690.025
328.15 K, 39969 kPa	691.415
328.15 K, 41959 kPa	692.865
328.15 K, 44953 kPa	695.094
328.15 K, 47978 kPa	697.371
328.15 K, 49926 kPa	698.804
328.15 K, 51997 kPa	700.259
328.15 K, 54947 kPa	702.284
328.15 K, 57939 kPa	704.221
328.15 K, 59991 kPa	705.64
328.15 K, 61982 kPa	707.057
328.15 K, 65032 kPa	708.835
328.15 K, 66046 kPa	709.499
328.16 K, 501 kPa	654.211
328.16 K, 12210 kPa	667.562
328.16 K, 15055 kPa	670.204
328.16 K, 18061 kPa	673.216
328.16 K, 20279 kPa	675.247
328.16 K, 22013 kPa	676.775
333.15 K, 100.4 kPa	649.302
333.15 K, 532.6 kPa	649.653
333.15 K, 897.8 kPa	650.259
333.15 K, 1987.2 kPa	651.687
333.15 K, 3023.4 kPa	653.063
333.15 K, 4997.4 kPa	655.338
333.15 K, 7002.4 kPa	657.844
333.15 K, 9032 kPa	660.047
333.15 K, 10210 kPa	661.268
333.15 K, 15008 kPa	666.206
333.15 K, 22034 kPa	672.882
333.15 K, 28040 kPa	678.188
333.15 K, 30016 kPa	679.579
333.15 K, 32067 kPa	681.185
333.15 K, 32977 kPa	681.946
333.15 K, 34086 kPa	683.474
333.15 K, 35075 kPa	684.235
333.15 K, 37894 kPa	686.324
333.15 K, 40111 kPa	687.848
333.15 K, 41947 kPa	689.191
333.15 K, 44974 kPa	691.567
333.15 K, 47936 kPa	693.899
333.15 K, 49920 kPa	695.372
333.15 K, 51953 kPa	696.893
333.15 K, 54876 kPa	699.008
333.15 K, 58057 kPa	700.988
333.15 K, 59993 kPa	702.482
333.15 K, 62049 kPa	703.927
333.15 K, 64970 kPa	705.65
333.15 K, 66005 kPa	706.481
333.16 K, 303.5 kPa	649.622
333.16 K, 1003 kPa	650.554
333.16 K, 12011 kPa	663.322
333.16 K, 17992 kPa	669.217
333.16 K, 20036 kPa	671.108
333.16 K, 25027 kPa	675.678
333.16 K, 33073 kPa	682.004
338.15 K, 100.4 kPa	644.915
338.15 K, 309.8 kPa	645.161
338.15 K, 561.6 kPa	645.341
338.15 K, 898.5 kPa	645.924
338.15 K, 1014.1 kPa	646.212
338.15 K, 2936.1 kPa	648.694
338.15 K, 5018.6 kPa	651.205
338.15 K, 10034 kPa	657.126
338.15 K, 14885 kPa	662.203
338.15 K, 17956 kPa	665.481
338.15 K, 19927 kPa	667.369
338.15 K, 22041 kPa	669.319
338.15 K, 25026 kPa	672.169
338.15 K, 29994 kPa	676.134
338.15 K, 32882 kPa	678.515
338.15 K, 33937 kPa	679.921
338.15 K, 35012 kPa	680.879
338.15 K, 39987 kPa	684.582
338.15 K, 41990 kPa	686.092
338.15 K, 44978 kPa	688.463
338.15 K, 47971 kPa	690.744
338.15 K, 49999 kPa	692.38
338.15 K, 52127 kPa	693.976
338.15 K, 57940 kPa	697.82
338.15 K, 60014 kPa	699.459
338.15 K, 65012 kPa	702.688
338.15 K, 66057 kPa	703.55
338.16 K, 2000.2 kPa	647.409
338.16 K, 6917.3 kPa	653.552
338.16 K, 9046.9 kPa	656.063
338.16 K, 11959 kPa	659.361
338.16 K, 27976 kPa	674.704
338.16 K, 31949 kPa	677.899
338.16 K, 32882 kPa	678.499
338.16 K, 37962 kPa	683.24
338.16 K, 54992 kPa	696.066
338.16 K, 62074 kPa	700.918
343.15 K, 105.1 kPa	640.758
343.15 K, 297.3 kPa	640.918
343.15 K, 520.3 kPa	641.218
343.15 K, 911.7 kPa	641.765
343.15 K, 1017.7 kPa	641.938
343.15 K, 1994.6 kPa	643.242
343.15 K, 2968.3 kPa	644.553
343.15 K, 4994.8 kPa	647.152
343.15 K, 6976.6 kPa	649.726
343.15 K, 9002.6 kPa	652.141
343.15 K, 10060 kPa	653.267
343.15 K, 12024 kPa	655.625
343.15 K, 14928 kPa	658.769
343.15 K, 17975 kPa	661.975
343.15 K, 19985 kPa	664
343.15 K, 22033 kPa	666.001
343.15 K, 25090 kPa	668.93
343.15 K, 28045 kPa	671.724
343.15 K, 30082 kPa	673.379
343.15 K, 32170 kPa	675.296
343.15 K, 33053 kPa	676.043
343.15 K, 33097 kPa	676.076
343.15 K, 35030 kPa	677.808
343.15 K, 37943 kPa	680.185
343.15 K, 40012 kPa	681.817
343.15 K, 41972 kPa	683.353
343.15 K, 44927 kPa	685.751
